# From ChEMBL document CHEMBL5325413, “Optimization of BAX trigger site activator BTSA1 with improved antitumor potency and in vitro ADMET properties” (Eur J Med Chem, 2023)
# Active and inactive are the calls of the source. The calls are words filed in the database; no cut-off is given here.
# Experiments:
# [1] = Drug recovery in human liver microsomes at 100 uM incubated for 60 mins in absence of NADPH by LC-MS/MS analysis; assay type: ADME, Microsome; details: read-out: Drug recovery
# [2] = Stability in rat plasma assessed as compound remaining measured after 120 mins; assay type: ADME, cell-free; details: read-out: Stability
# A549 [3] = assay: Induction of apoptosis in human A549 cells assessed as live cells at 5 uM incubated for 48 hrs by Annexin V-FITC/PI staining based flow cytometry analysis (reference value: 95.9 %); assay type: functional
# [4] = Stability in rat plasma assessed as compound remaining measured after 10 mins; assay type: ADME, cell-free; details: read-out: Stability
# A549 [5] = assay: Induction of apoptosis in human A549 cells assessed as formation of apoptotic bodies at 2.5 to 10 uM incubated for 48 hrs by Hoechst 33342 staining based fluorescence microscopic analysis; assay type: functional, cell-based; details: dose 2.5-10 µM
# in vitro = details: human, liver microsomes
# A549 [6] = assay: Induction of apoptosis in human A549 cells assessed as upregulation of BAX translocation at 20 uM incubated for 24 hrs by Western blot analysis; assay type: functional, cell-based
# A549 [7] = assay: Inhibition of colony formation in human A549 cells incubated for 2 weeks by crystal violet staining based analysis; assay type: functional, cell-based; details: dose 1-3 µM
# A549 [8] = assay: Induction of apoptosis in human A549 cells assessed as early apoptotic cells at 5 uM incubated for 48 hrs by Annexin V-FITC/PI staining based flow cytometry analysis (reference value: 1.09 %); assay type: functional
# [9] = Drug recovery in mouse liver microsomes at 100 uM incubated for 60 mins in absence of NADPH by LC-MS/MS analysis; assay type: ADME, Microsome; details: read-out: Drug recovery
# [10] = mouse, microsomes, 1 h, 100 µM
# Cytochrome P450 2D6 = Cytochrome P450 2D6 (Homo sapiens, UniProt P10635); assay: Inhibition of CYP2D6 in human liver microsomes using dextromethorphan as substrate prewarmed for 10 mins followed by NADPH addition and measured after 10 mins by LC-MS/MS analysis
# A549 [11] = assay: Induction of cell cycle arrest in human A549 cells assessed as accumulation of cells at G2/M phase at 2.5 uM incubated for 48 hrs by RNase/PI staining based flow cytometry analysis (reference value: 18.97%); assay type: functional
# A549 [12] = assay: Induction of apoptosis in human A549 cells assessed as dead cells at 10 uM incubated for 48 hrs by Annexin V-FITC/PI staining based flow cytometry analysis (reference value: 0.739%); assay type: functional
# A549 [13] = assay: Induction of apoptosis in human A549 cells assessed as total apoptotic cells at 5 uM incubated for 48 hrs by Annexin V-FITC/PI staining based flow cytometry analysis (reference value: 4.26%); assay type: functional
# HCT-116 = assay: Antiproliferative activity against human HCT-116 cells assessed as cell growth inhibition incubated for 72 hrs by MTT assay; assay type: functional
# [14] = Metabolic stability in mouse liver microsomes assessed as parent compound remaining at 100 uM incubated for 60 mins in absence of NADPH by LC-MS/MS analysis
# Cytochrome P450 2C19 = Cytochrome P450 2C19 (Homo sapiens, UniProt P33261); assay: Inhibition of CYP2C19 in human liver microsomes using S-mephenytoin as substrate prewarmed for 10 mins followed by NADPH addition and measured after 10 mins by LC-MS/MS analysis
# Cytochrome P450 3A4 = Cytochrome P450 3A4 (Homo sapiens, UniProt P08684); assay: Inhibition of CYP3A4 in human liver microsomes using midazolam as substrate prewarmed for 10 mins followed by NADPH addition and measured after 10 mins by LC-MS/MS analysis
# [15] = Stability in rat plasma assessed as compound remaining measured after 60 mins; assay type: ADME, cell-free; details: read-out: Stability
# A549 [16] = assay: Induction of cell cycle arrest in human A549 cells assessed as accumulation of cells at S phase at 5 uM incubated for 48 hrs by RNase/PI staining based flow cytometry analysis (reference value: 26.01%); assay type: functional
# A549 [17] = assay: Induction of cell cycle arrest in human A549 cells assessed as accumulation of cells at G2/M phase at 5 uM incubated for 48 hrs by RNase/PI staining based flow cytometry analysis (reference value: 18.97%); assay type: functional
# MV4-11 = assay: Antiproliferative activity against human MV4-11 cells expressing BAX assessed as cell growth inhibition incubated for 72 hrs by trypan blue cell counting analysis; assay type: functional
# NCI-H1581 = assay: Antiproliferative activity against human NCI-H1581 cells expressing BAX assessed as cell growth inhibition incubated for 72 hrs by MTT assay; assay type: functional
# A549 [18] = assay: Induction of apoptosis in human A549 cells assessed as late apoptotic cells at 10 uM incubated for 48 hrs by Annexin V-FITC/PI staining based flow cytometry analysis (reference value: 2.52%); assay type: functional
# A549 [19] = assay: Antiproliferative activity against human A549 cells assessed as reduction in cell viability at 1 to 5 uM by MTT assay; assay type: functional, cell-based; details: dose 1-5 µM, time 24-72 hrs, TDE = time-dependent effect
# K562 = assay: Antiproliferative activity against human K562 cells expressing BAX assessed as cell growth inhibition incubated for 72 hrs by trypan blue cell counting analysis; assay type: functional
# A549 [20] = assay: Induction of cell cycle arrest in human A549 cells assessed as accumulation of cells at G0/G1 phase at 5 uM incubated for 48 hrs by RNase/PI staining based flow cytometry analysis (reference value: 54.82%); assay type: functional
# A549 [21] = assay: Induction of cell cycle arrest in human A549 cells assessed as accumulation of cells at G0/G1 phase at 2.5 uM incubated for 48 hrs by RNase/PI staining based flow cytometry analysis (reference value: 54.82%); assay type: functional
# A549 [22] = assay: Induction of apoptosis in human A549 cells assessed as early apoptotic cells at 10 uM incubated for 48 hrs by Annexin V-FITC/PI staining based flow cytometry analysis (reference value: 0.708%); assay type: functional
# A549 [23] = assay: Antiproliferative activity against human A549 cells assessed as cell growth inhibition incubated for 72 hrs by MTT assay; assay type: functional
# A549 [24] = assay: Induction of apoptosis in human A549 cells assessed as nuclear fragmentation at 2.5 to 10 uM incubated for 48 hrs by Hoechst 33342 staining based fluorescence microscopic analysis; assay type: functional, cell-based; details: dose 2.5-10 µM
# A549 [25] = assay: Induction of apoptosis in human A549 cells assessed as cell rounding at 2.5 to 10 uM incubated for 48 hrs by Hoechst 33342 staining based fluorescence microscopic analysis; assay type: functional; details: dose 2.5-10 µM
# A549 [26] = assay: Induction of apoptosis in human A549 cells assessed as early apoptotic cells at 10 uM incubated for 48 hrs by Annexin V-FITC/PI staining based flow cytometry analysis (reference value: 1.09 %); assay type: functional
# A549 [27] = assay: Induction of apoptosis in human A549 cells assessed as late apoptotic cells at 5 uM incubated for 48 hrs by Annexin V-FITC/PI staining based flow cytometry analysis (reference value: 2.52%); assay type: functional
# [28] = target: Apoptosis regulator BAX (Homo sapiens) (UniProt Q07812); assay: Activation of BAX in human A549 cells at 20 uM incubated for 24 hrs by NP-40 based immunoprecipitation analysis; assay type: cell-based; details: filed as activator
# [29] = human, 1 h, 100 µM
# Chain of Cytochrome P450 2D6 (P10635 whole entry): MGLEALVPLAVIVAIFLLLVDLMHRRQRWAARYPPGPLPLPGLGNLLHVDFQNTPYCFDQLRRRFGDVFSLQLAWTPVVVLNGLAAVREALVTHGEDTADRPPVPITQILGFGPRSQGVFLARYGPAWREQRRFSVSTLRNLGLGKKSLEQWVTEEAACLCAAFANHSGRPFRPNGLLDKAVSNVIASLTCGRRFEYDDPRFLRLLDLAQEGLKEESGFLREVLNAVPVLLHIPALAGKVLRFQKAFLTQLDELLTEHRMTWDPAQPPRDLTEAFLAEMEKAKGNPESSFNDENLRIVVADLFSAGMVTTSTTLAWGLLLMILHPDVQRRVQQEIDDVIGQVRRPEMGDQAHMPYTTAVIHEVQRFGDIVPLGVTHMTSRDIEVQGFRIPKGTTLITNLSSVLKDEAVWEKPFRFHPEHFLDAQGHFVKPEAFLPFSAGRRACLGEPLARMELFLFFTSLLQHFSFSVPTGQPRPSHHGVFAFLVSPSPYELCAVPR
# Chain of Cytochrome P450 2C19 (P33261 whole entry): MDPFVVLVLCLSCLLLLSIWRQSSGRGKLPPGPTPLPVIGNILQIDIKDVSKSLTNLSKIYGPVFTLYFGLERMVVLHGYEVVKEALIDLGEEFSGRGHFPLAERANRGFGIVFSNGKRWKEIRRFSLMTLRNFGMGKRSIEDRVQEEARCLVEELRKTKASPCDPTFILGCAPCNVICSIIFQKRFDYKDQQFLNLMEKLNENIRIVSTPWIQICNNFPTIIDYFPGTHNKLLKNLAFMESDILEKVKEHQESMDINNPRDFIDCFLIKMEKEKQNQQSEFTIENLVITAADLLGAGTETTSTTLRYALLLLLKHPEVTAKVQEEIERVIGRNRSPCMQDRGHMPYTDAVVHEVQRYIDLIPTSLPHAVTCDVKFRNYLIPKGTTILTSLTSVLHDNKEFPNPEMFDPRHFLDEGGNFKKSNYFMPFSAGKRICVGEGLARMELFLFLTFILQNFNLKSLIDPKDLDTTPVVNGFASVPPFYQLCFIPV
# Chain of Apoptosis regulator BAX (Homo sapiens) (Q07812 whole entry): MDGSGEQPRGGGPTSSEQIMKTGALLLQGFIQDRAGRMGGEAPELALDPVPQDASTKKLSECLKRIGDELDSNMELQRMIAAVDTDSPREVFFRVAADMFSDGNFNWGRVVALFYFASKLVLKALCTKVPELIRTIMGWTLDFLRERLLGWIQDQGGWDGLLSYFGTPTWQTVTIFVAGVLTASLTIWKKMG
# Chain of Cytochrome P450 3A4 (P08684 whole entry): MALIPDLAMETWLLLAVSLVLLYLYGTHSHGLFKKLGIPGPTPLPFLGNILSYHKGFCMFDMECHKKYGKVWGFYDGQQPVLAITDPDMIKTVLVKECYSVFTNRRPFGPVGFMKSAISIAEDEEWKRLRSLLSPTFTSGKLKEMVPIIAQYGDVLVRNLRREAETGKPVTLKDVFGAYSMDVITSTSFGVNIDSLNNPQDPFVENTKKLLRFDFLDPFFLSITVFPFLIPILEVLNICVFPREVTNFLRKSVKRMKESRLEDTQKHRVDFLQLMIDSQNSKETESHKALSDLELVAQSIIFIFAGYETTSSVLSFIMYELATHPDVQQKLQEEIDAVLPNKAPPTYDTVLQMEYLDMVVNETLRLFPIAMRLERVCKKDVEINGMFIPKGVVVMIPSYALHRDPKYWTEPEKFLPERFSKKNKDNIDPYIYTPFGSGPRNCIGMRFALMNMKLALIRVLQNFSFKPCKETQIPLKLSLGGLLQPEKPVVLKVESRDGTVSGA
smiles,measurement,setting,value
CN(C)C1CCN(C(=O)c2ccc(N3N=C(c4ccccc4)/C(=N/Nc4ccccc4)C3=O)cc2)CC1,"remaining at 1 h, 100 µM",[1],102%
same,remaining at 2 h,[2],92.9%
same,Activity,A549 [3],84.2%
same,remaining at 10 min,[4],99.4%
same,Activity,A549 [5],Active
same,"half-life at 1 h, 100 µM",in vitro,> 2.42 h
same,Activity,A549 [6],Active
same,inhibition,A549 [7],Dose-Dependent Effect
same,Activity,A549 [8],10.6%
same,"remaining at 1 h, 100 µM",[9],96%
same,CLint,[10],< 9.6 µL/min/mg
same,IC50,Cytochrome P450 2D6,> 50 µM
same,Activity,A549 [11],16.48%
same,Activity,A549 [12],0.535%
same,Activity,A549 [13],15.43%
same,GI50,HCT-116,3.31 µM
same,"remaining at 1 h, 100 µM",[14],96%
same,IC50,Cytochrome P450 2C19,> 50 µM
same,IC50,Cytochrome P450 3A4,> 50 µM
same,remaining at 1 h,[15],94.8%
same,Activity,A549 [16],27.84%
same,Activity,A549 [17],8.3%
same,GI50,MV4-11,2.84 µM
same,GI50,NCI-H1581,2.15 µM
same,Activity,A549 [18],18.4%
same,Activity,A549 [19],Tde
same,GI50,K562,1.41 µM
same,Activity,A549 [20],63.73%
same,Activity,A549 [21],58.46%
same,Activity,A549 [22],71.2%
same,GI50,A549 [23],2.15 µM
same,Activity,A549 [24],Active
same,Activity,A549 [25],Active
same,Activity,A549 [26],55%
same,Activity,A549 [27],4.83%
same,Activity,[28],Active
same,CLH,[29],< 0.516 L/h/kg
